# Patent publication US20220362249A1, “METHODS FOR TREATING […]” (PTC Therapeutics MP, Inc., priority 2019, published 2022)
# Where a name gives a salt, the structure may show the parent alone.
# Columns and labels:
# [1] = system: blood Phe; test: Reduction of blood Phe in patients with PKU, randomized crossover of PTC923 vs sapropterin dihydrochloride; format: in vivo, human; conditions: for Mean (SD) blood Phe, At baseline: 20 mg/kg period, Day 1 pre-dose; for Least squares mean (SE) change from baseline in blood Phe / Mean (SD) blood Phe, Change / Mean (SD) blood Phe, On treatment: 20 mg/kg/day oral, 7 days; for Mean (SD) blood Phe, On treatment: mean of days 3, 5 and 7
# Method: Following screening for eligibility, a 7-day run-in period commenced. Patients then received 7 days of once-daily oral treatment with either PTC923 20 mg/kg/day (“low dose”), or PTC923 60 mg/kg/day or sapropterin dihydrochloride, in a random order. PTC923 (formerly CNSA-001) is oral sepiapterin. Each patient was randomized to one of six treatment sequences (FIG. 2). The randomization in six different treatment sequences was intended to minimize carry over effect, treatment period effect, patient fatigue, and natural fluctuations in blood Phe levels. A 7-day washout period separated each active treatment period. Patients were asked to maintain their usual pre-study diet, including consumption of amino acid mixtures if prescribed, and were monitored throughout the study by a metabolic dietician.
# Blood samples for measurement of Phe were taken on 7, 5, 3, and 1 days before randomization. During treatment periods, blood was taken pre-dose for day 1 and post-dose for days 3, 5 and 7. During the washout periods, blood was taken for measurement of Phe on days 1, 3, 5, and 7. All samples were taken under fasting conditions or no earlier than 3 hours following a meal and at the same time of day. Blood Phe was measured using a validated LC-MS-MS technique of dried blood sampling via Volumetric Absorptive Microsampling (VAMS®) using Mitra® 4-sampler clamshells, at a central bioanalytical laboratory (Agilex Biolabs Pty Ltd).
# The main objective of the study was to assess the efficacy of PTC923 measured as the mean blood Phe change from baseline. The efficacy population consisted of all patients who were randomized and had blood Phe measurements before treatment and at days 3, 5 and 7 of treatment from at least one treatment period. The safety population consisted of all patients who were randomized and who received any dose of study treatment. The sample size calculation was based on an all-comers, placebo-controlled regulatory study of sapropterin with an observed mean decrease in blood Phe of 99 μmol/L and standard deviation of 220 μmol/L, and assumed a true mean decrease in blood Phe of 300 μmol/L with 80% power utilizing a 2-sided α of 0.05.
# Response to PTC923 was evaluated by measuring the mean change from baseline in blood Phe (calculated as the mean of measurements at days 3, 5 and 7 of each treatment period). Day 1 pre-dose blood Phe concentrations for each treatment period served as the individual patient specific baseline for that period.
# The change from baseline in blood Phe of each treatment period was modelled using a linear mixed model for repeated measures (MMRM). The efficacy model included fixed effects for baseline for each treatment period, treatment group, sequence, period, and a random subject effect within each sequence, with a first order autoregressive AR (1) covariance structure. No unplanned covariates were included.
# Pairwise comparisons in changes from baseline in Phe were performed between each PTC923 treatment and sapropterin treatment by calculating the least squares means with Dunnet's method of adjustment for multiple comparisons. The estimated change in blood Phe levels, their standard errors (SE) and associated p-values were calculated for each pairwise comparison. Dunnet's method of adjustment was used to account for the multiple comparisons of the test groups against the control group. This adjustment ensured that the overall Type I error rate under the null hypothesis was maintained despite multiple test groups being compared to the single control group.
# The overall mean changes in blood Phe for each treatment were calculated and the standard deviations (SD) were determined.
# A prespecified sensitivity analysis excluded treatment periods where baseline Phe was <300 μmol/L and a responder analysis looked at patients with baselines ≥300 μmol/L who responded to sapropterin and/or to PTC923 treatment by ≥20% reduction.
# [2] = Adverse events in patients with PKU on PTC923 or sapropterin dihydrochloride; format: in vivo, human; conditions: 20 mg/kg
# Text: PTC923 safety was monitored and adverse events (AEs) were coded using the Medical Dictionary for Regulatory Activities (MedDRA®) version 21.0. Treatment-emergent adverse events (TEAEs) were defined as AE that began on or after first dose of study drug. A TEAE was associated with the study treatment currently being received, or the last study treatment before its onset. A treatment-related TEAE was, in the judgment of the investigator possibly, probably or definitely related to treatment. A serious AE (SAE) was defined as resulting in death, life-threatening AE, inpatient hospitalization or prolongation of existing hospitalization, a persistent or significant disability/incapacity or a substantial disruption of the ability to conduct normal life functions, or a congenital anomaly/birth defect.
# [3] = system: blood Phe; conditions: standard deviation of 220 μmol/L; cited from earlier work
# [4] = system: phenylalanine plasma concentrations; conditions: cited from earlier work
# [5] = Subjects with classical PKU (N = 11)
structure (smiles),measurement,setting,value
"C[C@H](O)[C@H](O)[C@H]1CNc2nc(N)[nH]c(=O)c2N1 [sapropterin dihydrochloride, reference compound]",Proportion of patients achieving blood Phe <360 μmol/L,"[1]; 20 mg/kg, n of 24",42%
same,"Mean (SD) blood Phe, At baseline",[1]; All subjects (N = 24),710.4 (370.0) μmol/L
same,Least squares mean (SE) change from baseline in blood Phe,[1]; All subjects (N = 24),−91.5 (41.7) μmol/L
same,"Mean (SD) blood Phe, Change",[1]; All subjects (N = 24),−90.8 (226.9) μmol/L
same,"Mean (SD) blood Phe, On treatment",[1]; All subjects (N = 24),619.5 (475.3) μmol/L
same,Least squares mean change from baseline in blood Phe to first Phe measurement (Day 3),"[1]; Day 3, 20 mg/kg",-72.3 µmol/L
same,"Mean (SD) blood Phe, At baseline",[1]; [5],903.5 (422.5) μmol/L
same,"Mean (SD) blood Phe, Change",[1]; [5],10.7 (221.6) μmol/L
same,Least squares mean (SE) change from baseline in blood Phe,"[1]; Subjects with classical PKU (N = 11), dihydrochloride, 20 mg/kg/day",-2.8 µmol/L
same,Least squares mean (SE) change from baseline in blood Phe,"[1]; Subjects with classical PKU (N = 11), listed as Sapropterin dihydrochloride, dihydrochloride, 20 mg/kg/day",−2.8 (62.0) μmol/L
same,"Mean (SD) blood Phe, On treatment",[1]; [5],914.2 (538.7) μmol/L
same,Least squares mean change from baseline in blood Phe,"[1]; group of 12 responders (Phe reduction ≥20%, baseline ≥300 μmol/L), 20 mg/kg",-139.70 µmol/L
same,Non-classical subjects normalized (blood phenylalanine less than 120 micromole per liter),[1]; non-classical subjects,15.4%
same,Patients reporting any adverse event,[2],21%
same,Patients reporting severe AE,[2],0%
same,Patients reporting treatment-related AE,[2],0%
same,Headache (all-cause AE),[2]; transient,4%
same,Observed mean decrease in blood Phe,[3],99 µmol/L
same,Classical PKU subjects that respond to treatment (historically),[4],about 10%
